This passage reports viability results from article PMC12040169 (PLOS Biology, 2025).

The viability is a read-out of living cells in per cent, often relative to untreated cells.

A short description of the data set: in vitro. As to conditions: human, hela cells, % viability.

Take `O=C(c1ccc(-n2ccnc2)c(-n2cccc2)c1)N1CCSCC1` [CBK285364]: the viability at 28.5 h, 10 µM is 97.4%.

Regarding `CC(=O)N1CCN(Cc2nc3cc(NC(=O)Cn4nc(C)c5ccccc5c4=O)ccc3n2C)CC1` [CBK267989], the viability at 28.5 h, 10 µM was found to be 87.8%.

For the compound `COc1ncc(-c2cncc(NCc3cccc(Cl)c3)n2)c(OC)n1` [CBK065211], the viability at 28.5 h, 10 µM was 106%.

With `CC(C)(O)C#Cc1ccc(C(=O)NCCCNC(=O)c2ccc(C#CC(C)(C)O)s2)s1` [CBK267142], the viability at 28.5 h, 10 µM worked out at 93.8%.

Regarding `CC(=O)Nc1ccc(CN2Cc3nc[nH]c3C[C@H]2c2nc(-c3ccc(F)cc3)no2)cc1` [CBK288956], the viability at 28.5 h, 10 µM was 89.7%.

Regarding `Fc1ccc(-c2cc(C(F)(F)F)nc(NCC3CCCO3)n2)cc1` (centres unmarked) [CBK269492], the viability at 28.5 h, 10 µM is 89.1%.

As to `COc1ccc(N2CCN(/C(=N\S(=O)(=O)c3ccc(C)cc3)Nc3nc(C)cc(C)n3)CC2)cc1` [CBK266564], the viability at 28.5 h, 10 µM was 99.9%.

Regarding `CCn1cc(CN2C3CCC2CC(O)(c2cccc(F)c2)C3)c(C)n1` (centres unmarked) [CBK282755], the viability at 28.5 h, 10 µM was determined as 80.9%.

Consider `COc1ccc(/C=C(\C)C(=O)Nc2cccc(N3CCNCC3)c2)cc1OC` [CBK034115T], for which the viability at 28.5 h, 10 µM was found to be 90.1%.

Consider `COc1cccc([C@H]2CN(C(C)=O)[C@@H]3CCN(C4CCCC4)C[C@H]23)c1` [CBK283375], for which the viability at 28.5 h, 10 µM was 89.7%.

In the case of `CCOC(=O)c1c(C)n(-c2ccccc2)c2ccc(O)c(CN(C)C)c12` [CBK261593C], the viability at 28.5 h, 10 µM is 91%.

On to `O=C(O)[C@@H]1CSC(c2ccc(C(F)(F)F)cc2)N1` (some centres unmarked) [CBK286921], for which the viability at 28.5 h, 10 µM worked out at 87.7%.

`Cc1c(NC(=O)CSCc2ccc(Cl)cc2Cl)cccc1C(=O)O` [CBK131704]: the viability at 28.5 h, 10 µM was 104%.

As for `O=C(Nc1ccc(N2CCCC2)c(F)c1)C1CC(=O)N(C2CC2)C1` (centres unmarked) [CBK281461], the viability at 28.5 h, 10 µM is 100%.

As to `COc1ccc(C(=O)Nc2nc3c(OC)ccc(C)c3s2)cc1` [CBK287615], the viability at 28.5 h, 10 µM was 110%.

Regarding `CC(C)C(=O)Nc1nnc(-c2ccc(Cl)cc2)o1` [CBK287593], the viability at 28.5 h, 10 µM is 94%.

`C[C@@H]1CN2CCCC2CN1CCc1ccccc1` (some centres unmarked) [CBK285424]: the viability at 28.5 h, 10 µM is 85.4%.

In the case of `COc1ncc(-c2nccnc2OC)c(OC)n1` [CBK106744], the viability at 28.5 h, 10 µM worked out at 94.2%.

Consider `O=C(O)CC/C(=N\Nc1ccc([N+](=O)[O-])cc1)c1ccc(F)cc1` [CBK017075], for which the viability at 28.5 h, 10 µM was 110%.

On to `O=c1[nH]c2ncc(-c3ccccc3)nc2n1CCCN1CCOCC1` [CBK064805], for which the viability at 28.5 h, 10 µM was 111%.

`Fc1ccccc1COc1cccc(CNCCN2CCOCC2)c1` [CBK278148C]: the viability at 28.5 h, 10 µM was determined as 102%.

`CCOC(=O)CN1C(=O)S/C(=C/c2cc(C)n(-c3ccc(S(N)(=O)=O)cc3)c2C)C1=O` [CBK265410]: the viability at 28.5 h, 10 µM was determined as 94%.

As for `CN(C)c1ccc(-c2nc(C(F)(F)F)nn2C)cn1` [CBK307202], the viability at 28.5 h, 10 µM amounted to 87.1%.

Turning to `CCCC(=O)NCCn1ncc(-c2ccncc2)c1C1CC1` [CBK282116], the viability at 28.5 h, 10 µM was 83.6%.

For the compound `O=C(Nc1cnn(C23CC4CC(CC(C4)C2)C3)c1)c1cnn2c(C(F)(F)F)cc(-c3ccco3)nc12` [CBK268538], the viability at 28.5 h, 10 µM stood at 52.4%.

As to `CC(C)(C)OC(=O)N1CC2(C1)N=C1C=C(C(C)(C)C)ON1[C@H]1[C@H](O)[C@H](O)C[C@H]12` [CBK303240], the viability at 28.5 h, 10 µM turned out to be 97.6%.

Regarding `CS(=O)(=O)c1ccc(Cn2c(=O)n(S(=O)(=O)c3ccccc3)c3ccccc32)cc1` [CBK106530], the viability at 28.5 h, 10 µM worked out at 95.1%.

Take `Cc1cc(CNS(=O)(=O)c2c(C)noc2C)no1` [CBK062261]: the viability at 28.5 h, 10 µM is 91.4%.

For `COc1ccc(NC(=O)N[C@H]2CO[C@H]3[C@@H]2OC[C@@H]3n2cc(-c3ccccc3)nn2)cc1` [CBK289506], the viability at 28.5 h, 10 µM was 106%.

Turning to `Cc1cnc(CNC(=O)N2CCN(C3CCN(C)CC3)CC2)cn1` [CBK155886], the viability at 28.5 h, 10 µM was found to be 91.3%.

`CC1CCc2onc(C(=O)NCc3nccn3C)c2C1` (centres unmarked) [CBK281514]: the viability at 28.5 h, 10 µM stood at 68.9%.

In the case of `COc1cccc(NC(=O)c2ccncc2Cl)c1` [CBK174695], the viability at 28.5 h, 10 µM stood at 96.3%.

Turning to `CN1CCc2c(C#N)c(N)n(N)c(=S)c2C1` [CBK264055], the viability at 28.5 h, 10 µM is 101%.

Consider `CCOC(=O)c1c(NC(=O)NCc2cccnc2)sc2c1CCC2` [CBK307585], for which the viability at 28.5 h, 10 µM is 87.3%.

On to `Cc1ncccc1C(=O)N1CCN(Cc2ccccc2)CC1` [CBK200171], for which the viability at 28.5 h, 10 µM worked out at 97.7%.

Regarding `CN(C)CCN(Cc1ccccc1)C(=O)Nc1cccnc1` [CBK145047], the viability at 28.5 h, 10 µM is 95%.

As for `CC(CNc1cc(=O)n2ccccc2n1)CN1CCCC1` (centres unmarked) [CBK305270], the viability at 28.5 h, 10 µM is 99.1%.

Take `Cc1ccc(C)c(C2CCCN2C(=O)c2ccc(=O)n(CC(=O)N(C)c3ccccc3)c2)c1` (centres unmarked) [CBK285654]: the viability at 28.5 h, 10 µM was found to be 97.5%.

For `COc1ccc(CCCC(=O)N2CCC(c3c(C(N)=O)sc4ccccc34)C2)cc1C` (centres unmarked) [CBK285848], the viability at 28.5 h, 10 µM worked out at 94%.

In the case of `O=C(C1CCCCC1)N1CCCC(c2cc3cccnc3[nH]2)C1` (centres unmarked) [CBK284938], the viability at 28.5 h, 10 µM worked out at 98.4%.

As for `N#Cc1ccc(-c2cnc(N)c(-c3ccc(C(=O)N4CCOCC4)cc3)n2)cc1` [CBK064067T], the viability at 28.5 h, 10 µM was determined as 116%.

Consider `CN(C)C(=O)CN1C(=O)CC2(C1=O)C(=O)N(CC(=O)O)c1ccc(F)cc12` (centres unmarked) [CBK076119], for which the viability at 28.5 h, 10 µM came out at 101%.

For the compound `CCc1nc2ccc(C(=O)N(C)CCN(C)C)cn2c1N(C)Cc1nccs1` [CBK145474], the viability at 28.5 h, 10 µM is 96.8%.

For the compound `C=CCNC(=O)CSc1nc2sc(C)c(C)c2c(=O)[nH]1` [CBK287350], the viability at 28.5 h, 10 µM came out at 88.2%.

With `Cn1c(=O)c2c(nc(SCC(=O)O)n2C)n(C)c1=O` [CBK262942], the viability at 28.5 h, 10 µM amounted to 88.3%.

`COC(=O)c1ccc2c(c1)[n+](CCO)c(C)n2CCO` [CBK262443C]: the viability at 28.5 h, 10 µM was found to be 88.1%.

Turning to `COc1ccc(C(C)C)cc1-c1cncc(N[C@@H](C)c2ccccc2)n1` [CBK065504], the viability at 28.5 h, 10 µM came to 115%.

Turning to `O=C(NC(=S)Nc1ccc(N2CCN(Cc3ccccc3F)CC2)cc1)c1ccco1` [CBK268946], the viability at 28.5 h, 10 µM amounted to 92.6%.

Take `Cc1ccc2[nH]cc(CCN3CCC4(CC3)NCCc3c4[nH]c4ccc(OCc5ccccc5)cc34)c2c1` [CBK039342]: the viability at 28.5 h, 10 µM was determined as 91.8%.

As for `CN1CCC(N2CCN(C(=O)c3ccc(-c4cccc(C(F)(F)F)c4)o3)CC2)CC1` [CBK149085], the viability at 28.5 h, 10 µM was 91.2%.

On to `CCCc1[nH]nc(O)c1Cc1ccc(C(C)C)cc1` [CBK075033], for which the viability at 28.5 h, 10 µM was found to be 106%.

`C(=N\Nc1nc2ccccc2[nH]1)/c1cccs1` [CBK025417]: the viability at 28.5 h, 10 µM came out at 87.6%.

In the case of `O=C(COc1ccccc1[N+](=O)[O-])Nc1ccc(Br)cc1C(=O)O` [CBK266008], the viability at 28.5 h, 10 µM came to 84.9%.

For `O=C(OCc1ccccc1)N1CCC(c2nc3ccc(Br)cc3[nH]2)CC1` [CBK153849], the viability at 28.5 h, 10 µM came out at 93.7%.

For the compound `O=C(O)c1ccc(NC(CC(=O)c2ccccc2)c2ccc(Br)cc2)cc1` (centres unmarked) [CBK266195C], the viability at 28.5 h, 10 µM is 109%.

Consider `CC(C)n1cc(C(=O)N2CCCC2c2nc3ccccc3[nH]2)cn1` (centres unmarked) [CBK284667], for which the viability at 28.5 h, 10 µM turned out to be 108%.
